{"source": "patent US12209112B2", "about": "“Methods of preventing or treating diseases, conditions, or disorders associated with chemotherapy” (The Chinese University of Hong Kong, priority 2022, dated 2025)", "key": {"hESC-CMs [1]": {"system": "hESC-CMs", "test": "PrestoBlue cell viability analysis of hESC-CMs exposed to doxorubicin", "assay_type": "cell-based, human", "conditions": "for optimal timing of pretreatment prior to doxorubicin: 1, 6, 24, 48, 72 h tested, doxorubicin 1.5 μM for 24 h", "description": "Viability of hESC-CMs was assessed using PrestoBlue (Thermo Fisher Scientific, USA). hESC-CMs in suspension were seeded at a density of 15,000 cells per well on 96-well flat-bottom microtiter plates and cultured at 37° C. in a humidified 5% CO2 atmosphere. The B27+/RPMI-1640 media with Y27632 were changed to B27+/RPMI−1640 media within 24 hours. Cells were then incubated in B27+/RPMI−1640 without supplement for at least 72 hours. PrestoBlue was diluted in a ratio of 1:10 in B27+/RPMI−1640 media and incubated with the cells at 37° C. for 30 minutes. After incubation, fluorescence reading was performed at excitation and emission wavelengths of 530 nm and 590 nm, respectively, using the Synergy HTX Multi-Mode microplate reader (Agilent Technologies, Inc., USA).\nSix logarithmic concentrations of GDF15 were initially used to identify the optimal dose for cytoprotection: 0.1 ng/ml, 1 ng/ml, 10 ng/ml, 100 ng/ml, 1,000 ng/ml (1 ug/ml), and 10,000 ng/ml (10 ug/ml). Further refinement of dose response was subsequently achieved using concentrations at 100 ng/ml, 200 ng/ml, and 300 ng/ml. The optimal time point (see below) of 24 hours was selected. Doxorubicin at 1.5 μM was used to induce cytotoxicity.\nhESC-CMs were pretreated with GDF15 for 1 hour, 6 hours, 24 hours, 48 hours, or 72 hours (“pretreatment”), followed by exposure to 1.5 μM doxorubicin alone for a further 24 hours. A second set of experiments involved pretreatment of hESC-CMs for 1 hour, 6 hours, 24 hours, 48 hours, or 72 hours, followed by removal of the media containing GDF15, and coincubation of hESC-CMs with both GDF15 and doxorubicin for another 24h (“pre/co-treatment”). The efficacy of GDF15 in protecting cardiomyocytes was assessed by cell viability analysis using PrestoBlue."}, "C57BL/6J male mice": {"system": "C57BL/6J male mice", "test": "TUNEL staining of mouse myocardium (cardiomyocyte apoptosis)", "assay_type": "in vivo", "conditions": "pretreatment before doxorubicin", "description": "Recombinant human GDF15/MIC-1 protein (CHO-derived) was purchased from PeproTech Inc. (Cranbury, USA) and described in Example 1. […] For in vitro studies, solid lyophilized powder of these two drugs were solubilized at the recommended concentrations in sterile water, and separate aliquots were made and frozen until thawing prior to addition to cell cultures. For in vivo studies, all agents were dissolved in […] normal saline according to the required concentrations (doxorubicin, 5 mg/kg; GDF15, 0.5 mg/kg; dexrazoxane, […]), and the final volume of each intraperitoneal injection was 100 μl. The recommended dose ratio of dexrazoxane to doxorubicin was 10 to 1. In the following examples, 5 mg/kg of doxorubicin was used which correspond to 50 mg/kg of dexrazoxane. The FDA recommends that dexrazoxane be injected within 0.5 hour prior to doxorubicin infusion in individuals. This was followed in the same manner when applying to the test animals.\nTo induce cardiotoxicity in the mouse, four weekly intraperitoneal injections of doxorubicin at 5 mg/kg were administered. After one dose of doxorubicin at 5-6 mg/kg in a mouse, the level of exposure has been estimated to be similar to that of a human individual being given a standard dose of doxorubicin at approximately 60 mg/m^2. […]"}, "hESC-CMs [2]": {"system": "hESC-CMs", "test": "Mitochondrial membrane potential (TMRE)", "assay_type": "cell-based, human", "description": "Mitochondrial membrane potential (MMP) as a measure of mitochondrial function and viability was assessed using tetramethylrhodamine ethyl ester (TMRE) (Thermo Fisher Scientific, USA), a cell-permeant cationic fluorescent dye that is readily taken up by viable mitochondria. hESC-CMs seeded at 15,000 cells per well on a 96-well flat-bottom microtiter plate were cultured at 37° C. in a humidified 5% CO2 atmosphere for at least 3 days before MMP measurement. TMRE dye was applied at 50 nM for 20 minutes in B27+/RPMI−1640 media, followed by fluorescence reading at excitation and emission wavelengths of 485 nm and 528 nm, respectively, using the Synergy HTX Multi-Mode microplate reader."}, "[3]": {"conditions": "hESC-CMs, pretreatment in the presence of Dox"}}, "data": [{"substance": "GDF15: commercially available recombinant human GDF-15 protein (PeproTech 120-28C), CHO cell-derived, SEQ ID NO: 1", "values": [{"measurement": "cytoprotective effects after priming, pre/co-treatment", "setting": "hESC-CMs [1]; hESC-CMs primed with GDF15 for 24 hours, then coincubation with GDF15 and doxorubicin 24 h", "result": "cytoprotective effects persisted"}, {"measurement": "optimal timing of pretreatment prior to doxorubicin", "setting": "hESC-CMs [1]; hESC-CMs", "result": 24, "unit": "h"}, {"measurement": "optimal timing of pretreatment prior to doxorubicin", "setting": "hESC-CMs [1]; hESC-CMs, listed as recombinant GDF15", "result": "approximately 24 hours"}, {"measurement": "cell viability (positive PrestoBlue staining)", "setting": "hESC-CMs [1]; hESC-CMs, GDF15 pretreatment for 24 hours before doxorubicin 1.5 μM", "result": "increased cell viability"}, {"measurement": "cell viability compared with dexrazoxane", "setting": "hESC-CMs [1]; [3]", "result": "slightly higher percentage of cell viability"}, {"measurement": "cardiomyocyte death by apoptosis (TUNEL staining)", "setting": "C57BL/6J male mice", "result": "reduced extent of cardiomyocyte death by apoptosis"}, {"measurement": "mitochondrial membrane potential and function (TMRE)", "setting": "hESC-CMs [2]; 300 ng/ml GDF15 pretreatment, hESC-CMs exposed to doxorubicin", "result": "better preserved than at other concentrations"}, {"measurement": "mitochondrial membrane potential compared with dexrazoxane", "setting": "hESC-CMs [2]; [3]", "result": "performed similarly to dexrazoxane"}]}]}
